Here are results for nine compounds from ChEMBL document CHEMBL4321873, “Optimization of Orally Bioavailable PI3Kδ Inhibitors and Identification of Vps34 as a Key Selectivity Target” (J Med Chem, 2020).

Converted amounts (≈) assume the structure as drawn.

Data set [1] is described as follows: Clearance in Wistar Han rat at 1 mg/kg, iv by LC-MS/MS analysis. It is filed as ADME, organism-based. The following applies: in vivo.
Data set [2] is described as follows: Intrinsic clearance in human hepatocytes at 0.5 uM measured after 10 mins by LC-MS/MS analysis. It counts as ADME, cell-based, Hepatocyte.
The nature of data set [3]: Clearance in Wistar Han rat at 1 mg/kg, iv by LC-MS/MS analysis relative to hepatic blood flow. It is filed as ADME, organism-based. The following applies: in vivo.
Data set [4] in a line: Intrinsic clearance in rat hepatocytes at 0.5 uM measured after 10 mins by LC-MS/MS analysis. It counts as ADME, cell-based, Hepatocyte.
Data set [5] can be described thus: Permeability of the compound in pH 7.05 phosphate buffer measured after 3 hrs by artificial membrane permeability assay based LC-MS analysis. It is filed as ADME. The following applies: PAMPA, read-out: permeability.
Data set [6] is described as follows: Kinetic solubility of the compound in pH 7.4 phosphate buffered saline measured after 1 hr by CLND method. The following applies: read-out: Kinetic_solubility. It counts as physicochemical.
A short description of data set [7]: Volume of distribution at steady state in Wistar Han rat at 1 mg/kg, iv or 1 mg/kg, po by LC-MS/MS analysis. The following applies: in vivo, read-out: Vdss. It counts as ADME, organism-based.
Data set [8] in a line: Intrinsic clearance in minipig hepatocytes at 0.5 uM measured after 10 mins by LC-MS/MS analysis. The following applies: pig. It counts as ADME, cell-based, Sus scrofa domesticus, Hepatocyte.
Data set [9] can be described thus: Half life in Wistar Han rat at 1 mg/kg, iv by LC-MS/MS analysis. It is filed as ADME, organism-based. As to conditions: in vivo.
Data set [10] can be described thus: Time at which plasma concentration stays at 10 times Kd(app) for binding affinity to PI3Kdelta in human HL60 cell extract in Wistar Han rat at 10 to 100 mg/kg, po administered twice daily for 7 days. It is filed as ADME, organism-based. As to conditions: in vivo, 168 h.
Data set [11] in a line: AUC (0 to 24 hrs) in Wistar Han rat at 100 mg/kg, po administered twice daily for 7 days by LC-MS/MS analysis. It is filed as ADME, organism-based. More on the design: dose 100 mg/kg, time < 24 hr, route oral. The following applies: in vivo.
Data set [12] in a line: Oral bioavailability in Wistar Han rat at 1 mg/kg by LC-MS/MS analysis. It is filed as ADME, organism-based. The following applies: in vivo.
The nature of data set [13]: Time at which plasma concentration stays at 10 times Kd(app) for binding affinity to PI3Kdelta in human HL60 cell extract in Wistar Han rat at 30 to 300 mg/kg, po administered once daily for 7 days. The following applies: in vivo, 168 h. It counts as ADME, organism-based.
Data set [14] can be described thus: AUC (0 to 24 hrs) in Wistar Han rat at 10 mg/kg, po administered twice daily for 7 days by LC-MS/MS analysis. It is filed as ADME, organism-based. Also noted: dose 10 mg/kg, time < 24 hr, route oral. The following applies: in vivo.
Data set [15] is described as follows: AUC (infinity) in Wistar Han rat at 1 mg/kg, po by LC-MS/MS analysis. It counts as ADME, organism-based. More on the design: dose 1 mg/kg, time infinity, route oral. As to conditions: in vivo.
Data set [16] is described as follows: AUC (0 to 24 hrs) in Wistar Han rat at 30 mg/kg, po administered twice daily for 7 days by LC-MS/MS analysis. The following applies: in vivo. Also noted: dose 30 mg/kg, time < 24 hr, route oral. It counts as ADME, organism-based.
Data set [17] can be described thus: AUC (0 to 24 hrs) in Wistar Han rat at 100 mg/kg, po administered once daily for 7 days by LC-MS/MS analysis. The following applies: in vivo. Also noted: time < 24 hr, dose 100 mg/kg, route oral. It counts as ADME, organism-based.
The nature of data set [18]: AUC (0 to 24 hrs) in Wistar Han rat at 30 mg/kg, po administered once daily for 7 days by LC-MS/MS analysis. Also noted: dose 30 mg/kg, time < 24 hr, route oral. It counts as ADME, organism-based. As to conditions: in vivo.
Data set [19] can be described thus: AUC (0 to 4 hrs) in Wistar Han rat at 300 mg/kg, po administered once daily for 7 days by LC-MS/MS analysis. It is filed as ADME, organism-based. More on the design: dose 300 mg/kg, time < 4 hr, route oral. The following applies: in vivo.
Data set [20] is described as follows: Time at which plasma concentration stays at 10 times Kd(app) for binding affinity to VPS34 in human HL60 cell extract in Wistar Han rat at 100 mg/kg, po administered once daily for 7 days. It counts as ADME, organism-based. The following applies: in vivo, 168 h.

Usually clearance stands for a measure of how efficiently the substance is removed, as volume per time. The low end stands for a low capacity for elimination, the high end for a high capacity for elimination. `COc1ncc(-c2cc3c(c(OCCN4CCC(C(C)(C)O)CC4)c2)CCOC3)cc1NS(C)(=O)=O` showed a clearance in data set [1] of 109 mL/min/kg.
In the case of `COCCS(=O)(=O)Nc1cc(-c2cc3c(c(OCCN4CCC(C(C)(C)O)CC4)c2)COC3)cnc1OC`, the intrinsic clearance in data set [2] was < 0.9 mL/min/g. Besides, in data set [3], the CL is listed as 28%. Besides, the “Intrinsic clearance (CLint)” value in data set [4] is 1.6 mL/min/g. In addition, the Papp at 3 h in data set [5] is < 0.3 ×10⁻⁶ cm/s.
`COc1ncc(-c2cc3c(c(OCCN4CCC(C(C)(C)O)CC4)c2)COC3)cc1NS(=O)(=O)CC#N`: the Papp at 3 h in data set [5] is < 0.3 ×10⁻⁶ cm/s.
As a reminder, the half-life is the time needed for the level to fall by half in the phase considered. Read a high half-life as slow loss. On to `COCCS(=O)(=O)Nc1cc(-c2cc3c(c(OCCN4CCC(C(C)(C)O)CC4)c2)CCOC3)cnc1OC`, for which the intrinsic clearance in [2] was < 0.9 mL/min/g. Besides, in data set [4], the “Intrinsic clearance (CLint)” value was < 0.9 mL/min/g. For the same compound, in data set [6], the solubility kinetic at 1 h is ≥ 184 µg/mL. The Vd in data set [7] worked out at 6.9 L/kg. For the same compound, the CLH in [8] is < 0.9 mL/min/g. This compound came in with a clearance in [1] of 41 mL/min/kg. In [9], this compound gave a half-life of 2.7 h.
What is called AUC is the area under the concentration-time curve, a measure of exposure. High values mean high exposure, low ones low exposure. By bioavailability is commonly meant dose-corrected exposure relative to a reference, in per cent. Low readings indicate poor availability, high ones good availability. As usually defined, the AUC(0-inf) is the area under the concentration-time curve extrapolated to infinity. Take `COCCS(=O)(=O)Nc1cc(-c2cc3c(c(OC[C@H]4CN(C5COC5)CCO4)c2)COC3)cnc1OC`: the intrinsic clearance in data set [2] was < 0.3 mL/min/g. The Time in data set [10] and in data set [13] was 24 h each time. For the same compound, in data set [3], the CL turned out to be 28%. Further, the values for the exposure (AUC) at 24 h in data set [11], in data set [14] and in [16] were 114000 ng·h/mL, 12600 ng·h/mL and 37400 ng·h/mL, respectively. Moreover, the bioavailability in data set [12] was found to be 84%. Also, in data set [4], the “Intrinsic clearance (CLint)” value was found to be 1.2 mL/min/g. In addition, in data set [6], the solubility kinetic at 1 h is ≥ 270 µg/mL. Moreover, the Vd in data set [7] came out at 2 L/kg. The same compound came in with a CLH in [8] of 0.9 mL/min/g. In [15], this compound came in with an AUC(0-inf) of 829 ng·h/mL. Moreover, the clearance in data set [1] was found to be 22 mL/min/kg. Further, the half-life in data set [9] was 3.2 h.
In the case of `COc1ncc(-c2cc(OCCN3CCC(C(C)(C)O)CC3)c3c(c2F)COC3)cc1NS(C)(=O)=O`, the intrinsic clearance in [2] was < 0.9 mL/min/g. For the same compound, in [4], the “Intrinsic clearance (CLint)” value was found to be 4.5 mL/min/g.
For the compound `COc1ncc(-c2cc3c(c(NC(=O)CN4CCOCC4)c2)COC3)cc1NS(C)(=O)=O`, the AUC(0-inf) in data set [15] worked out at 673 ng·h/mL.
With `COc1ncc(-c2cc(OCCN3CCC(C(C)(C)O)CC3)c3c(c2)[C@@H](C)OC3)cc1NS(C)(=O)=O`, the intrinsic clearance in data set [2] is < 0.9 mL/min/g. Also, in data set [4], the “Intrinsic clearance (CLint)” value was 9.7 mL/min/g.
For `COc1ncc(-c2cc3c(c(OCCN4CCC(C(C)(C)O)CC4)c2)COC3)cc1NS(C)(=O)=O`, the values for the AUC at 24 h in data set [17] and in data set [18] were 26300 ng·h/mL and 5000 ng·h/mL, respectively. In addition, in data set [2], the intrinsic clearance is < 0.9 mL/min/g. In addition, the Time in data set [10], in data set [13] and in data set [20] was 24 h in each case. In addition, the CL in [3] turned out to be 62%. For the same compound, the bioavailability in data set [12] was determined as 32%. The “Intrinsic clearance (CLint)” value in data set [4] is 2.5 mL/min/g. Also, in data set [19], the AUC at 4 h is 27500 ng·h/mL. Moreover, the solubility kinetic at 1 h in data set [6] was 197 µg/mL (≈ 390 µM). Besides, in data set [7], the Vd was 5.9 L/kg. Also, the CLH in data set [8] was < 0.9 mL/min/g. The compound further came in with an AUC(0-inf) in [15] of 148 ng·h/mL. In addition, the clearance in data set [1] turned out to be 48 mL/min/kg. Besides, the half-life in [9] is 2.1 h.
